The term inhibition denotes the relative decrease from the control value, in per cent. Read a high inhibition as strong suppression.

In the assay the target is T1, 11β-HSD1 (Homo sapiens, UniProt P28845).
T1 construct: Human liver microsomes were used as a source of 11β-HSD1 enzyme; tissue XenoTech Lot No. 1410013; host or cells: pooled human liver microsomes, mixed gender
Kind of assay: Inhibition of 11β-HSD1 (cortisone to cortisol, human liver microsomes, cortisol ELISA). It counts as biochemical. Particulars: 10 µM, 2.5 h, 37 °C. The protocol: The resulting solution with a final volume of 100 µL was incubated for 2.5 h at 37 °C. To stop the reaction, 10 µL of a 100 µM solution of 18β-glycyrrhetinic acid in PBS was added. The level of cortisol obtained in the reaction was measured by commercially available ELISA kit.
As a control, analogous tests without the addition of inhibitors were used. Half the inhibitory concentration (causing 50% reduction of cortisol or cortisone) was read from the chart.

T1 sequence (P28845 whole entry): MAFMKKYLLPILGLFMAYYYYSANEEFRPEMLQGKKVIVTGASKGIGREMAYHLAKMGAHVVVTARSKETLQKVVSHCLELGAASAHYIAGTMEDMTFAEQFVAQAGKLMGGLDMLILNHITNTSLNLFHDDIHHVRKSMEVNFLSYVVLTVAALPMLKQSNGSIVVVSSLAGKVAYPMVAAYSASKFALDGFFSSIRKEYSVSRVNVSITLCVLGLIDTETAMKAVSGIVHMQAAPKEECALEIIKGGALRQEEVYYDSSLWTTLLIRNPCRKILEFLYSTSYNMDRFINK

As to `CC1(C)[C@@H](OC(=O)CCC(=O)O)CC[C@]2(C)[C@H]3C(=O)C=C4[C@@H]5C[C@@](C)(C(=O)O)CC[C@]5(C)CC[C@@]4(C)[C@]3(C)CC[C@@H]12` [carbenoxolone, reference compound], the inhibition at 10 µM stood at 90.4 ± 1.86%.

Values taken from article PMC10139140, “Synthesis of Novel 2-(Cyclopentylamino)thiazol-4(5H)-one Derivatives with Potential Anticancer, Antioxidant, and 11β-HSD Inhibitory Activities” (International Journal of Molecular Sciences, 2023).
